Test results: patent publication USRE39682E1, “Farnesyl derivatives and pharmaceutical compositions containing them” (Ramot at Tel Aviv University Ltd., priority 1993, dated 2007)

Columns and labels:
[1] = molecular target: T1, PPMTase (Rattus norvegicus, UniProt Q9WVM4); assay: PPMTase activity (AFC methylation) in membranes of ras-transformed rat1 cells; type: biochemical; conditions: ras-transformed rat fibroblast membranes; for PPMTase activity: with inhibitor
T1 construct: PPMTase activity in membranes obtained from four different cell lines as determined by methylation of AFC; endogenous in cells; host or cells: ras-transformed rat1 (EJ) cell membranes
Description: (§1) Charles River adult male rats were used for preparation of cerebellar synaptosomal membranes. Cerebella were removed after decapitation and homogenized in 0.32M sucrose containing 50 mM Tris-HCl pH 7.4, 3 mM EDTA, 1 mM EGTA, 5 unit/ml aprotinin and 5 μg/ml pepstatin (buffer A) to yield 10% (w/v) homogenates. Nuclear fractions were obtained by 10 min. 600×g centrifugation and synaptosomal fractions were obtained by 20 mins. 14,500×g centrifugation. Membranes of the various cell types used were prepared in the above buffer A by a 60 min. spin at 100,000×g.
(§2) Pellets were resuspended in the homogenization buffer and stored at −70° C. Methylation assays were performed at 37° C. in 50 mM Tris-HCl buffer pH 7.4, using 75-125 μg protein, 25 μM [methyl-^3H]AdoMet ([…]) as a methyl donor and 150 μM AFC as a methylation substrate (prepared as a stock solution in DMSO) in a total volume of 50 μl. DMSO concentration in all assays was 4%.
(§3) Reactions were terminated after 10 min. by adding 500 μl chloroform methanol (1:1) and a subsequent addition of 250 μl H2O, mixing them and subsequently by phase separation. A portion of 125 μl of the chloroform phase was dried down at 40° C. and 200 μl of 1M NaOH/1% SDS solution were added thereto. The [^3H]methanol thus formed was counted by the vapor phase equilibrium method as described previously (Hakiai et al., Cell Mol. Neurobiol., 11, 415-431, (1991); Lenner et al., Cell Mol. Neurbiol., 12, 333 and 3351, (1992); Ben-Baruch et al., Biochem. Biophy. Res. Commun., 195, 282-288, (1993)). Typical background counts (i.e. counts of methylation with no AFC added) were 50-100 cpm while typical methylation counts with AFC as a substrate yielded 500 to 6000 cpm. Assays were performed in triplicate and background counts subtracted. Methylation of endogenous substrates, in intact cells, and [α-^32P] GTP-blot overlay assays and gel electrophoreses were performed as detailed previously (Hakiai et al., supra (1991); Lenner et al., supra (1993)).
(§4) The B16F10 melanoma cells were grown in RPMI 1640/10% fetal calf serum, 2 mM glutamine and antibiotics as for the HEC1A cells, at the density of 1×10^4 cells/well. All four types of cells were used for determining the PPMTase activity using AFC as the substrate as described above for synaptosomal membrane preparation. Usually 150 μg membranal proteins were used in the assay for a 10 min. incubation time.

[2] = molecular target: T2, PPMTase (Homo sapiens, UniProt O60725); assay: PPMTase activity (AFC methylation) in membranes of HEC1A cells; type: biochemical; conditions: for PPMTase activity: with inhibitor
T2 construct: PPMTase activity in membranes obtained from four different cell lines as determined by methylation of AFC; endogenous in cells; host or cells: HEC1A cell membranes
Description: as §1, §2, §3, §4

[3] = test system: human endometrial carcinoma HEC1A cells; assay: Growth of HEC1A cells (cell counting); type: cell-based; conditions: 3 days of treatment
Description: The cell lines employed were rat1, -EJ, which are rat1 cells stably expressing Val- 12 activated human Ha-ras gene (Land H. et al., Nature, 304, 596-602, (1983)); V-raf-3T3, which are 3T3 cells stably expressing the V-raf gene (Xu, N., et al., Proc. Natl. Acad. Sci., 90, 6741-6745); RB-22, which are 3T3 cells stably expressing the rat Erb-B2 gene (Peles, et al., EMBO J., 10, 2077-2086 (1991)) CO6O cells (SV40-CHO), which are CHE cells stably expressing the SV-40 T-antigen gene (Lavi, Proc. Natl. Acad. Sci., 78, 6144-6148 (1981)); human endometrial carcinoma cell line HEC1A, which are cells that express activated K-ras (Enomoto T., Cancer Res., 50, 6139-6145; mouse B16F10 melanoma cells, rat pheochromocytoma PC12 cells, […] cells CHE and COS cells.
HEC1A, V-raf-3T3 and SV40-CHE cells were grown in Dulbecco's modified Eagle medium (DMEM) containing 10% fetal calf serum (FCS), 4 mM L-glutamine, 10 μg/ml streptomycin and 10 U/ml penicillin. Rat1 and -EJ cells were grown in the same medium except that it was supplemented with 12.5 U/ml nyostatin. RB-22 cells were grown in modified DMEM (1 mM sodium pyruvate, 20 mM sodium bicarbonate)/10% FCS containing 4 mM L-glutamine, […] streptomycin, 10 U/ml penicillin. PC-12 cells were grown in DMEM 15% FCS/5% horse serum and the above noted antibiotics.
HEC1A cells were plated in 24 well plates at a density of 5×10^3 cells per well and fed with 1 ml of medium. The cells were grown at 37° C. in a humidified atmosphere of 95%/5% air/CO2. All other cell types employed were plated in 24 well plates at a density of 2×10^3 cells per well and fed with the appropriate medium.
Cultures were treated with farnesyl derivatives or with solvent either 3 hrs following plating or one day after plating as indicated. The drugs were prepared in DMSO to yield the final desired drug (0.1-50 μM) concentration and 0.1% DMSO. Control cultures received 0.1% DMSO only. Cultures were fed on days 6, 7 and 9 of the experiment with the drugs or with solvent-containing media.
Cells were counted following 3, 7 and 10 days of beginning of treatments with drugs. For counting, cells were detached from plates with trypsin/EDTA, and collected by a low speed spin in the presence of DMEM/10% FCS. The pelleted cells were resuspended in a small volume of DMEM/10% FCS and counted under the microscope. Viability of cells was estimated by staining with (3-(4,5-dimethylthiosol-2-yl)-2,5-diphenyltetrazolium bromide (MTT) and microscopic examination of the stained and unstained cells, or spectrophotometric estimation (OD490, 590) of the total stain in each well. Non viable cells were estimated by the trypan blue exclusion method. […]

[4] = test system: C57 black mice; conditions: mouse, in vivo
Description: Toxicity tests in intact animals were performed with C57 black and with bulb-C mice.
Four groups, each comprising 9 mice, were used. Animals of group one received 100 μl s.c. injections of 150 μM FTS in salient solution containing 1% DMSO (0.21 mg drug/kg body weight). The drug was injected every 3 days for 2 weeks. Group two, which served as controls, received the solvent/saline solution for the same period of time.

[5] = Homo sapiens, HEC-1-A, 72 h, at 10 μM FTS or 50 μM FTA, read-out: maximal effects, inhibition of growth

T1 sequence (Q9WVM4 whole entry): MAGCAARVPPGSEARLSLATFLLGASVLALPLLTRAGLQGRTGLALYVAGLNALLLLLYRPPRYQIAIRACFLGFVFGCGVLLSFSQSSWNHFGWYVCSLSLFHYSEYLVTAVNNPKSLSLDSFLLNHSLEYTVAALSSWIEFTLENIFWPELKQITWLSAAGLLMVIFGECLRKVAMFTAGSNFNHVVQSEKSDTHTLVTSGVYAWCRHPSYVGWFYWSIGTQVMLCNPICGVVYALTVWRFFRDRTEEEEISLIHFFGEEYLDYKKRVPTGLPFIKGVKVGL
T2 sequence (O60725 whole entry): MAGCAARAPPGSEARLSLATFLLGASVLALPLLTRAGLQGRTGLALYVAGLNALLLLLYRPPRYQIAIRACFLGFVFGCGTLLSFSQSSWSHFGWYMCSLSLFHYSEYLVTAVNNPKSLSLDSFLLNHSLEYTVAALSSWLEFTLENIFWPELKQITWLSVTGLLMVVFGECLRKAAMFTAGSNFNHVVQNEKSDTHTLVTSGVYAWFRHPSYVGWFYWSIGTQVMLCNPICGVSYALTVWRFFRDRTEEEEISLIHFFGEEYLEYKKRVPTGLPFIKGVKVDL

Row | SMILES | % Inhibition [1] | PPMTase activity [1] | % Inhibition [2] | PPMTase activity [2] | concentration of maximal effects on growth [3] | Emax at 10 µM [3, 5] | toxicity to C57 mice [4] | Emax [3, 5]
1 | CC(C)=CCC/C(C)=C/CC/C(C)=C/CSc1ccccc1C(=O)O [FTS, (3,7,11-trimethyl-dodeca-2,6,10-trienyl)-2-thiobenzoic acid] | 73% | 1.8 pmol/min/mg protein | 40% | 1.5 pmol/min/mg protein | 10 µM | ~50% | not toxic | –
2 | CC(C)=CCC/C(C)=C/CC/C(C)=C/CSCC(=O)O [FTA, S-trans, trans-farnesylthioacetic acid, reference compound] | 72% | 1.9 pmol/min/mg protein | 43% | 1.7 pmol/min/mg protein | 50 µM | – | – | ~50%
